Source: US9128097B2, “Method and kit for assessing viable cells” (ChemoMetec A/S, priority 2008, dated 2015)

Columns and labels:
HEK293 cells = assay: NAM/PI staining of outgrown HEK293 cells, fluorescence microscopy; assay type: cell-based, Human; details: 10 μg/mL NAM
Experimental: Materials and Methods. HEK293 cells were grown at 37° C. in a humidified air atmosphere with 5% CO2 in DMEM (Invitrogen, #31966) supplemented with 10% heat-inactivated fetal bovine serum (Invitrogen, #10108-165). Cells were harvested with 0.5 mL of trypsin (Invitrogen, #25300) and neutralized with 5 mL medium (DMEM+10% FCS) two days after they had reached full confluency. These outgrown HEK293 cells (cell density 1.6×10^6, 78% viable determined using the NC-100 NucleoCounter system following the manufacturer's (ChemoMetec) protocol) were stained with 10 μg/mL NAM (Sigma, #01665). Another cell sample were treated with 0.25% Triton X-100 (Sigma, #T9284) and hereafter added 10 μg/mL NAM. After staining, each cell sample was loaded into a NucleoCassette, containing the DNA stain propidium iodide (PI). The cells were investigated using an Olympus IX50 fluorescence microscope, and images were captured using a Lumenera CCD camera and in-house developed software. PI and NAM fluorescence were detected using, respectively, U-MWG2 (green long pass: 510-550 nm) and U-MNUA2 (UV band pass, 330-385 nm) filter cubes (Olympus).

bone marrow cells = assay: NAM/PI staining of bone marrow derived cells; assay type: cell-based, murine; details: bone marrow cells 93% viable; 10 μL NAM (100 μg pr. mL DMSO) to 90 μL cells
Experimental: Materials and Methods. The bone marrow cells were harvested aseptically in the laminarflow hood. Briefly, bilateral tibia and femur were aseptically removed, freed of surrounding soft tissue, and placed in a petri dish with 10 mL 70% ethanol. After 2 minutes they were transferred to ice cold PBS. The bone marrow cavity was then flushed with 5 ml cold PBS using a 5-ml syringe with a 27-gauge needle attached, and the cells were collected from each bone. The cells were centrifuged at 300 g for 10 min, the supernatant was discarded, and cells were washed twice. […] 90 μL bone marrow cellss (cell density 1.7×10^6, 93% viable determined using the NC-100 NucleoCounter system following the manufacturer's (ChemoMetec A/S) protocol) were added 10 μL NAM (N-(9-acridinyl)maleimide, Sigma, #01665, CAS no. 49759-20-8) dissolved in DMSO (100 μg NAM pr. mL DMSO) and mixed by pipetting. […] The cells were investigated using an Olympus IX50 fluorescence microscope, and images were captured using a Lumenera CCD camera and in-house developed software. PI and NAM fluorescence were detected using, respectively, U-MWG2 (green long pass: 510-550 nm) and U-MNUA2 (UV band pass, 330-385 nm) filter cubes (Olympus).

[1] = test system: primary murine splenocytes; assay: NAM/PI staining of primary murine splenocytes; assay type: cell-based, C57BL/6 mouse; details: splenocytes 90% viable; 10 μL NAM (100 μg pr. mL DMSO) to 90 μL cells
Experimental: Materials and Methods. The spleen from a C57BL/6 mouse was placed in ice-cold PBS and gently ground using the end of a sterile syringe. The suspension was centrifuged at 300 g for 10 minutes; the pellet was resuspended in 1 mL 0.83% NH4Cl to lyse erythrocytes and incubated for 3 minutes on ice. The cells were then added 14 mL PBS and centrifuged at 300 g for 10 minutes. The splenocytes were resuspended in RPMI (Invitrogen, #61870) supplemented with 10% heat-inactivated fetal bovine serum (Invitrogen, #10108-165), 100 U/mL penicillin and 100 μg/mL streptomycin (Invitrogen, #15140-122). The cell clumps were allowed to sediment and were removed by pipetting, and the resulting single cell suspension was used. 90 μL splenocytes (cell density 1.7×10^6, 90% viable determined using the NC-100 NucleoCounter system following the manufacturer's (ChemoMetec A/S) protocol) were added 10 μL NAM (N-(9-acridinyl)maleimide, Sigma, #01665, CAS no. 49759-20-8) dissolved in DMSO (100 μg NAM pr. mL DMSO) and mixed by pipetting. […] The cells were investigated using an Olympus IX50 fluorescence microscope, and images were captured using a Lumenera CCD camera and in-house developed software. PI and NAM fluorescence were detected using, respectively, U-MWG2 (green long pass: 510-550 nm) and U-MNUA2 (UV band pass, 330-385 nm) filter cubes (Olympus).

Drosophila S2 cells = assay: NAM/PI staining of Drosophila S2 cells, fluorescence microscopy; assay type: cell-based, Drosophila melanogaster; details: S2 cells diluted 10 times in PBS; 10 μg/mL NAM
Experimental: Materials and Methods. Drosophila S2 cells were grown at 28° C. without shaking in Schneider's Drosophila medium (Invitrogen, #21720) supplemented with 10% heat-inactivated fetal bovine serum (Invitrogen, #10108-165). S2 cells (cell density 1.7×10^7, 99% viable determined using the YC-100 NucleoCounter system with diploid settings following the manufacturer's (ChemoMetec) protocol) were diluted 10 times in PBS and stained with 10 μg/mL NAM (Sigma, #01665). Cells were loaded into a NucleoCassette, containing the DNA stain propidium iodide (PI). The cells were investigated using an Olympus IX50 fluorescence microscope, and images were captured using a Lumenera CCD camera and in-house developed software. PI and NAM fluorescence were detected using, respectively, U-MWG2 (green long pass: 510-550 nm) and U-MNUA2 (UV band pass, 330-385 nm) filter cubes (Olympus).

Structure (SMILES): O=C1C=CC(=O)N1c1c2ccccc2nc2ccccc12 [NAM, N-(9-acridinyl)maleimide]
- staining of Triton X-100 treated cells (HEK293 cells; HEK293 cells treated with 0.25% Triton X-100): NAM negative
- staining of cells versus PI (HEK293 cells; outgrown HEK293 cells, 78% viable): NAM and PI were found to complementary stain the outgrown HEK293 cells
- staining of cells (UV filter) versus PI positive cells (bone marrow cells): nearly all the primary bone marrow cells were stained by NAM
- staining of cells (UV filter) versus PI positive cells [1]: nearly all the primary spleen cells were stained by NAM
- staining of cells versus PI (Drosophila S2 cells): NAM and PI were found to complementary stain S2 cells
